According to patent US20240335644A1, “TREATMENT OF A DISEASE OF THE GASTROINTESTINAL TRACT WITH AN IMMUNE MODULATORY AGENT RELEASED USING AN INGESTIBLE DEVICE” (BIORA THERAPEUTICS, INC., priority 2017, published 2024):

Columns and labels:
[1] = Pharmacokinetic study of oral vs intra-cecal tacrolimus: blood, rectal content, GI tissue and luminal content, tissue/plasma ratios (Example 13); design: species or system Yorkshire-Cross farm swine; details: female, Yorkshire-Cross, swine, in vivo, 0.09 mg/kg
Excerpt: (§1) No further randomization procedure was employed.

[2] = Tissue, plasma, rectal and GI content pharmacokinetics of tacrolimus, oral vs intra-cecal ingestible device (Example 10); design: species or system Yorkshire-Cross farm swine; details: in vivo
Procedure: as §1
Animals in Group 1 received an ingestible device containing 0.8 mL of vehicle solution (8000 alcohol, 2000 HCO-60). Animals in Group 2 received orally […] liquid formulation of tacrolimus at 4 mg/0.8 mL per animal (Prograf: 5 mg/mL). Animals in Group 3 received intra-cecally an ingestible device containing tacrolimus at 1 mg in 0.8 mL per ingestible device. Animals in Group 4 received intra-cecally an ingestible device containing tacrolimus at 2 mg in 0.8 mL per ingestible device. Animals in Group 5 received intra-cecally an ingestible device containing tacrolimus at 4 mg in 0.8 mL per ingestible device. To control for potential confounding effects of the surgery, all groups fast on Day −11 at least 24 hr before being subjected to anesthesia followed by surgical placements of a cecal port by a veterinary surgeon at Day −10. All animals were fasted for at least 12 hr prior to dosing on Day 1. Animals were dosed via either intra-cecal dosing (IC) or oral dosing (PO) at Day 1 (between 6-8 p.m.). All animals resumed feeding at approximately 4 hours after dose (11-12 p.m. after dosing).
Animals in Group 1 (Vehicle Control) were administered a single intra-cecal ingestible device containing 0.8 mL Vehicle solution (80% alcohol, 20% castor oil (HCO-60) on Day 1. On Day −10 the animals were anesthetized, and a veterinary surgeon surgically placed an intra-cecal port in each animal. On Day 1, each animal was placed into a sling then a single intra-cecal ingestible device containing 0.8 mL vehicle solution (80% alcohol, 20% castor oil (HCO-60)) is introduced by the veterinary surgeon into the cecum via the cecal port in each animal. Following ingestible device placement, the animals were removed from the slings and placed back into their pens with water. All animals resumed feeding at approximately 4 hours after dose. […] A total of 60 samples were collected.
Approximately 200-400 mg of rectal content were collected, if available, with a fecal swab (Copan Diagnostics Nylon Flocked Dry Swabs, 502CS01). The fecal swab was pre-weighed and weighed after collection in the collection tube (Sterile Tube and Cap No Media, PFPM913S), and the sample weight was recorded. […]
For tissue necropsy, small intestine fluid and cecal fluid were collected separately from all the animals into two separate square plastic bottles, and stored at −20° C. The length and diameter of the cecum and the colon was measured from one animal in each group and recorded for reference. […] All samples were weighed, and the tissue sample weights were recorded. […] Around 3 grams of the total punched sample were collected into a pre-weighed 15-mL conical tube, and the tissue weight was recorded. […]

Ratio Tissue(mean) (ng/g)/AUG(0-12 hr) (ng · hr/ml) ([1]; 12 h): 0
Ratio Tissue(mean) (ng/g)/Trough(12 hr)(ng/ml) ([1]; 12 h): 0
Trough (12 hr) ([1]; 12 h): 0.568 ng/mL
concentration at 12 h ([1]; Trough (12 hr)): 0.568 ± 0.291 ng/mL
luminal content (spiral, transverse, and distal colon) concentrations [2]: Significantly higher
mean concentration of tacrolimus in the cecum tissue and the proximate colon tissue [2]: higher
tissue (spiral and transverse colon) concentrations [2]: Significantly higher
level of tacrolimus in tissue ([2]; po): No measurable level
SMILES: C=CC[C@@H]1/C=C(\C)C[C@H](C)C[C@H](OC)[C@H]2O[C@@](O)(C(=O)C(=O)N3CCCC[C@H]3C(=O)O[C@H](/C(C)=C/[C@@H]3CC[C@@H](O)[C@H](OC)C3)[C@H](C)[C@@H](O)CC1=O)[C@H](C)C[C@@H]2OC [tacrolimus]
